Experimental findings from patent US20040023972A1, “Use of substituted imidazo[1,2-a]-pyridin-, -pyrimidin-and-pyrazin-3-yl-amine derivatives in the preparation of medicaments for inhibiting NOS” (Gruenenthal GmbH, priority 2000, published 2004) are described below.

For this assay, the target named is T1, NO synthase (Rattus norvegicus, UniProt P29476).
T1 construct: the supernatant was then removed by decantation and frozen in portions at −80° C; from tissue; host or cells: rat cerebellum, 20,000 g supernatant of homogenate
Put plainly: HTS-NOS assay (NOS assay): conversion of radioactive arginine, cation-exchanger filter plate. The format is biochemical. To be noted: for inhibition at 10 µM: read-out: HTS-NOS assay: % inhibition (10 μM). The method, boiled down: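 Rat cerebellum supernatant as NOS source, incubated with radiolabelled arginine plus cofactors including NADPH at 25 °C for 5-60 min depending on enzyme activity. Unconverted arginine was trapped on a cation-exchange filter plate, citrulline washed out, and bound arginine counted by scintillation; % inhibition versus no-compound reactions.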

As for `C#[N+]CCCCCCN(C(C)=O)c1c(-c2ccccn2)nc2cc(C)cc(C)n12` [Example 289, {6-[acetyl-(5,7-dimethyl-2-pyridin-2-yl-imidazo[1,2-a]pyridin-3-yl)-amino]-hexyl}-methylidyne-ammonium], the “HTS-NOS assay: % inhibition (10 μM)” value is on record as 63%.
In the case of `Cc1ccn2c(NC(C)(C)CC(C)(C)C)c(-c3ccccc3F)nc2c1` [Example 17, [2-(2-Fluoro-phenyl)-7-methyl-imidazo[1,2-a]pyridin-3-yl]-(1,1,3,3-tetramethyl-butyl)-amine], the inhibition (in general, how much of the control response was suppressed) at 10 µM was found to be 51%.
Same read-out and setting: to `COc1ccccc1-c1nc2cc(C)ccn2c1Nc1c(C)cccc1C` [Example 72, (2,6-Dimethyl-phenyl)-[2-(2-methoxy-phenyl)-7-methyl-imidazo[1,2-a]pyridin-3-yl]-amine] belongs 53%; to `CC(=O)N(c1c(C)cccc1C)c1c(-c2ccccc2C)nc2cc(C)cc(C)n12` [Example 148, N-(2,6-dimethyl-phenyl)-N-(5,7-dimethyl-2-o-tolyl-imidazo[1,2-a]pyridin-3-yl)-acetamide], 57%.
In the case of `Cc1ccn2c(NC(C)(C)C)c(-c3ccc(C4OCCO4)o3)nc2c1` [Example 65, Tert-butyl-[2-(5-[1,3]dioxolan-2-yl-furan-2-yl)-7-methyl-imidazo[1,2-a]pyridin-3-yl]-amine], the inhibition at 10 µM came to 62%.
Regarding `Cc1cc(C)n2c(NC(C)(C)CC(C)(C)C)c(C)nc2c1` [Example 9, (1,1,3,3-Tetramethyl-butyl)-(2,5,7-trimethyl-imidazol[1,2-a]pyridin-3-yl)-amine], the “HTS-NOS assay: % inhibition (10 μM)” value amounted to 59%.
On to `CC(=O)N(c1c(-c2ccc(C(=O)O)o2)nc2cc(C)ccn12)C(C)(C)CC(C)(C)C` [Example 186, 5-{3-[acetyl-(1,1,3,3-tetramethyl-butyl)-amino]-7-methyl-imidazo[1,2-a]pyridin-2-yl}-furan-2-carboxylic acid], for which the inhibition at 10 µM turned out to be 65%.
Same read-out and setting: the same measure for `COc1cc(-c2nc3nc(Cl)cc(N)n3c2N(C(C)=O)C2CCCCC2)ccc1OC(C)=O` [Example 251, acetic acid 4-[3-(acetyl-cyclohexyl-amino)-5-amino-7-chloro-imidazo[1,2-a]-pyrimidin-2-yl]-2-methoxy-phenyl ester]: 51%.
Turning to `Cc1ccn2c(NC(C)(C)C)c(C3CCCCC3)nc2c1` [Example 93, Tert-butyl-(2-cyclohexyl-7-methyl-imidazo[1,2-a]pyridin-3-yl)-amine], the inhibition at 10 µM came to 52%.
On the same count and under the same terms, the same measure for `Cc1ccc(-c2nc3cc(C)ccn3c2NC(C)(C)CC(C)(C)C)cc1` [Example 71, (7-Methyl-2-p-tolyl-imidazo[1,2-a]pyridin-3-yl)-(1,1,3,3-tetramethyl-butyl)-amine]: 58%.
`CC(=O)N(c1c(C)cccc1C)c1c(-c2ccc(Cl)cc2Cl)nc2ccccn12` [Example 247, N-[2-(2,4-dichloro-phenyl)-imidazo[1,2-a]pyridin-3-yl]-N-(2,6-dimethyl-phenyl)-acetamide]: the inhibition at 10 µM was determined as 56%.
On to `CC(=O)N(c1c(C)cccc1C)c1c(-c2ccccc2F)nc2cc(C)ccn12` [Example 209, N-(2,6-dimethyl-phenyl)-N-[2-(2-fluoro-phenyl)-7-methyl-imidazo[1,2-a]pyridin-3-yl]-acetamide], for which the inhibition at 10 µM turned out to be 62%.
`Cc1cc(C)n2c(NC3CCCCC3)c(-c3ccoc3)nc2c1.Cl` [Example 302, Cyclohexyl-(2-furan-3-yl-5,7-dimethyl-imidazo-[1,2-a]pyridin-3-yl)-amine hydrochloride]: for the setting “Table 5, concentration not given, hydrochloride”, the “NOS assay % inhibition” value is recorded as 54%.
With `Cc1ccn2c(NC(C)(C)CC(C)(C)C)c(-c3cccnc3)nc2c1` [Example 15, (7-Methyl-2-pyridin-3-yl-imidazo[1,2-a]-pyridin-3-yl)-(1,1,3,3-tetramethyl-butyl)-amine], the inhibition at 10 µM was determined as 59%.
On to `Cc1ccn2c(NC(C)(C)C)c(-c3cccc4ccccc34)nc2c1` [Example 33, Tert-butyl-(7-methyl-2-naphthalen-1-yl-imidazo[1,2-a]pyridin-3-yl)-amine], for which the inhibition at 10 µM is 67%.
With `Cc1ccn2c(NC3CCCCC3)c(-c3cccnc3)nc2c1` [Example 23, Cyclohexyl-(7-methyl-2-pyridin-3-yl-imidazo[1,2-a]pyridin-3-yl)-amine], the inhibition at 10 µM worked out at 74%.
As for `CCCCNc1c(-c2cccc(OC)c2OC)nc2cc(C)ccn12` [Example 74, Butyl-[2-(2,3-dimethoxy-phenyl)-7-methyl-imidazo[1,2-a]pyridin-3-yl]-amine], the inhibition at 10 µM is 62%.
Consider `CC(=O)N(c1c(-c2cccnc2)nc2cc(C)cc(C)n12)C(C)(C)CC(C)(C)C` [Example 147, N-(5,7-dimethyl-2-pyridin-3-yl-imidazo[1,2-a]pyridin-3-yl)-N-(1,1,3,3-tetramethyl-butyl)-acetamide], for which the inhibition at 10 µM is 68%.
For the compound `Cc1ccn2c(NC(C)(C)CC(C)(C)C)c(-c3cc4ccccc4o3)nc2c1` [Example 56, (2-Benzofuran-2-yl-7-methyl-imidazo[1,2-a]pyridin-3-yl)-(1,1,3,3-tetramethyl-butyl)-amine], the inhibition at 10 µM is 60%.
As for `CC(=O)N(c1c(C)nc2cc(C)cc(C)n12)C(C)(C)C` [Example 152, N-tert-butyl-N-(2,5,7-trimethyl-imidazo[1,2-a]pyridin-3-yl)-acetamide], the inhibition at 10 µM is 66%.
With `Cc1ccn2c(NC3CCCCC3)c(-c3ccccc3F)nc2c1` [Example 21, Cyclohexyl-(2-(2-fluoro-phenyl)-7-methyl-imidazo[1,2-a]pyridin-3-yl]-amine], the inhibition at 10 µM turned out to be 53%.
On to `CC(=O)N(c1c(C)cccc1C)c1c(-c2cccc(Oc3ccc(Cl)cc3)c2)nc2ccccn12` [Example 195, N-{2-[3-(4-chloro-phenoxy)-phenyl]-imidazo[1,2-a]pyridin-3-yl}-N-(2,6-dimethyl-phenyl)-acetamide], for which the inhibition at 10 µM amounted to 54%.
Consider `Cc1ccn2c(NC(C)(C)C)c(-c3cccc(O)c3)nc2c1` [Example 24, 3-(3-Tert-butylamino-7-methyl-imidazo[1,2-a]pyridin-2-yl)-phenol], for which the inhibition at 10 µM amounted to 59%.
Turning to `CCCCN(C(C)=O)c1c(-c2ccccn2)nc2c(C(=O)O)cccn12` [Example 231, 3-(acetyl-butyl-amino)-2-pyridin-2-yl-imidazo[1,2-a]pyridine-8-carboxylic acid], the inhibition at 10 µM amounted to 52%.
The same measure, in the same setting: to `CC(=O)N(c1c(-c2cccc(O)c2)nc2cc(C)cc(C)n12)C(C)(C)CC(C)(C)C` [Example 181, N-[2-(3-hydroxy-phenyl)-5,7-dimethyl-imidazo[1,2-a]pyridin-3-yl]-N-(1,1,3,3-tetramethyl-butyl)-acetamide] belongs 60%; to `Cc1cc(C)n2c(Nc3c(C)cccc3C)c(-c3cccc(O)c3)nc2c1` [Example 129, 3-[3-(2,6-Dimethyl-phenylamino)-5,7-dimethyl-imidazo[1,2-a]pyridin-2-yl]-phenol], 61%; to `Cc1cc(C)n2c(NC(C)(C)CC(C)(C)C)c(C3CCCCC3)nc2c1` [Example 44, (2-Cyclohexyl-5,7-dimethyl-imidazo[1,2-a]-pyridin-3-yl)-(1,1,3,3-tetramethyl-butyl)-amine], 71%.
On the same count and under the same terms, the same measure for `CC(=O)N(c1c(C)cccc1C)c1c(-c2ccccc2F)nc2cc(C)cc(C)n12` [Example 182, N-(2,6-dimethyl-phenyl)-N-[2-(2-fluoro-phenyl)-5,7-dimethyl-imidazo[1,2-a]-pyridin-3-yl]-acetamide]: 53%; for `CC(=O)N(c1c(C)nc2cc(C)cc(C)n12)C(C)(C)CC(C)(C)C` [Example 150, N-(1,1,3,3-tetramethyl-butyl)-N-(2,5,7-trimethyl-imidazo[1,2-a]pyridin-3-yl)-acetamide]: 60%.
Take `CCCCN(C(C)=O)c1c(-c2ccc(Cl)cc2Cl)nc2ncccn12` [Example 223, N-butyl-N-[2-(2,4-dichloro-phenyl)-imidazo[1,2-a]pyrimidin-3-yl]-acetamide]: the inhibition at 10 µM was 62%.
`COC(=O)CN(C(C)=O)c1c(C2CCCCC2)nc2cc(C)ccn12` [Example 257, [acetyl-(2-cyclohexyl-7-methyl-imidazo[1,2-a]pyridin-3-yl)-amino]-acetic acid methyl ester]: the inhibition at 10 µM was 56%.
On to `CC(=O)N(c1c(-c2ccncc2)nc2cc(C)ccn12)C(C)(C)CC(C)(C)C` [Example 166, N-(7-methyl-2-pyridin-4-yl-imidazo[1,2-a]pyridin-3-yl)-N-(1,1,3,3-tetramethylbutyl)-acetamide], for which the inhibition at 10 µM amounted to 61%.
In the case of `COc1cc(-c2nc3nc(C)cc(C)n3c2N(C(C)=O)C2CCCCC2)ccc1OC(C)=O` [Example 252, acetic acid 4-[3-(acetyl-cyclohexyl-amino)-5,7-dimethyl-imidazo[1,2-a]-pyrimidin-2-yl]-2-methoxy-phenyl ester], the inhibition at 10 µM is 53%.
Turning to `Cc1cc(C)n2c(NC(C)(C)C)c(-c3cccc(O)c3)nc2c1` [Example 20, 3-(3-Tert-butylamino-5,7-dimethyl-imidazo[1,2-a]pyridin-2-yl)-phenol], the inhibition at 10 µM was 64%.
Regarding `CC(=O)N(c1c(C)cccc1C)c1c(C(C)(C)C)nc2cc(C)ccn12` [Example 212, N-(2-tert-butyl-7-methyl-imidazo[1,2-a]pyridin-3-yl)-N-(2,6-dimethyl-phenyl)-acetamide], the inhibition at 10 µM was determined as 68%.
Take `CC(=O)N(c1c(-c2ccco2)nc2cc(C)cc(C)n12)C(C)(C)CC(C)(C)C` [Example 143, N-(2-furan-2-yl-5,7-dimethyl-imidazo[1,2-a]pyridin-3-yl)-N-(1,1,3,3-tetramethylbutyl)-acetamide]: the inhibition at 10 µM was 68%.
The same measure, in the same setting: the same measure for `CCCCNc1c(-c2ccc(N(C)C)c3ccccc23)nc2cnccn12` [Example 136, Butyl-[2-(4-dimethylamino-naphthalen-1-yl)-imidazo[1,2-a]pyrazin-3-yl]-amine]: 56%.
